Assay results as given in patent US20100184695A1, “VASCULAR ENDOTHELIAL CELL-BINDING PEPTIDE” (priority 2007, published 2010).
No end group written: not given here.

How the values were obtained:
[1] = test system: HUVEC cells; assay: Uptake of fluorescently labeled peptide-PEG conjugate into endothelial cell (quantitative analysis); format: cell-based, human; settings: fluorescein-labeled peptide-multiarm PEG conjugate, peptide 10 μM, 8 hours, 37° C.; fluorescence recovered from cells, added conjugate = 100%
Experimental: (§1) PEG having four maleimide groups per molecule (Multiarm PEG, SUNBRIGHT PTE-200MA, manufactured by NOF Corporation) was dissolved in DMSO at the concentration of 2 mM, 20 μl of this solution, and an equivalent amount (20 μl) of a 10 mM fluorescein-labeled peptide solution in DMSO were mixed to react them at room temperature for 2 hours. After 60 μl of PBS was added to dilute the mixture to the total amount of 100 μl, desalting treatment was performed using a spin column (Bio-Rad, Micro Bio-Spin Column 30) equilibrated by washing with 500 μl of PBS three times in advance, and an unbound peptide was separated and removed to obtain a peptide-multiarm PEG conjugate.
A 96-well microplate (glass bottom plate, Nunc No. 164588) was treated with 100 μl of a 1% acidic collagen solution for 10 minutes in advance, and washed with 120 μl of PBS once, and 1×10^5/ml of 100 μl of HUVEC cells were seeded, and cultured under the condition of 37° C. and 5% CO2 for 2 days. Upon use, cells were washed with 150 μl of a medium (EBM-2 medium containing a 2% fetal bovine serum (Cambrex Bio Science, containing a growth factor)) once, and 50 μl of the same medium, and 50 μl of a solution obtained by diluting a peptide-multiarm PEG conjugate (SEQ ID Nos. 12, 13, 16 (partial sequence of SEQ ID No. 14), and 77) prepared in Example 3 (1) with a medium to the peptide concentration of 20 μM were sequentially added, followed by culturing under the condition of 37° C. and 5% CO2 for 8 hours (the peptide concentration at reaction with cells was 10 μM). Cells after culturing were washed with 150 μl of a HBSS(+) buffer three times to remove an unbound peptide-multiarm PEG conjugate, and 100 μl of HBSS(+) containing 1% SDS to extract a peptide bound to, or taken into cells. The extract was transferred to another 96-well microplate (black plate), and fluorescence at an excitation wavelength of 490 nm and a detection wavelength of 530 nm was measured using a fluorophotometer. Letting the fluorescent intensity of each of the added peptide-multiarm PEG conjugate to be 100%, the amount (%) of uptake of the peptide into cells was calculated from the fluorescent amount recovered from cells.

[2] = test system: HUVEC cells; assay: Uptake of fluorescently labeled peptide-BSA conjugate into endothelial cell (quantitative analysis); format: cell-based, human; settings: fluorescein-labeled peptide-BSA conjugate, peptide 10 μM, 8 hours, 37° C.; fluorescence recovered from cells
Experimental: (§2) In 1 ml of a 50 mM sodium bicarbonate solution was dissolved 20 mg of BSA, to prepare a 0.3 mM solution. To the total amount (1 ml) of this solution was added 20 μl of a 250 mM solution (final concentration: 5 mM) of NHS-PEO12-maleimide (catalog No. 22112, manufactured by Pierce) which is a divalent crosslinking reagent having a PEG chain spacer, followed by a reaction at room temperature for 1 hour. After the reaction, 100 μl of the solution was desalted using a spin column (Bio-Rad, Micro Bio-Spin Column 30) equilibrated by washing with 500 μl of a 0.1 M sodium phosphate buffer (pH 7.0) three times in advance. An unreacted crosslinking reagent was separated and removed. After desalting, 50 μl of the solution was mixed with an equivalent amount of a 0.1 M sodium phosphate buffer (pH 7.0) to dilute, and to 100 μl of the resulting solution was added 10 μl of a fluorescein-labeled peptide solution in DMSO, followed by a reaction at room temperature for 1 hour. The total amount of the solution after the reaction was desalted using a spin column (Bio-Rad, Micro Bio-Spin Column 30) equilibrated by washing with 500 μl of PBS three times in advance, thereby, an unbound peptide was separated and removed, to obtain a peptide-BSA conjugate solution.
On a 96-well microplate (Corning No. 3595) were seeded 100 μl of 1×10^5/ml HUVEC cells, and cells were cultured under the condition of 37° C. and 5% CO2 for 2 days. Upon use, cells were washed with 150 μl of a medium (EBM-2 medium containing a 2% fetal bovine serum (Cambrex Bio Science, containing a growth factor)) once, and 50 μl of the same medium, and 50 μl of a solution obtained by diluting the peptide-BSA conjugate (SEQ ID Nos. 12, 13, 16, and 77) prepared in Example 3 (2) with a medium to the peptide concentration of 20 μM were sequentially added, followed by culturing under the condition of 37° C. and 5% CO2 for 8 hours (the peptide concentration at reaction with cells was 10 μM). Recovery of the peptide-BSA conjugate bound to, or taken into cells after the reaction, and fluorescence quantitation were performed in the same method as in Example 3.

[3] = test system: HUVEC cells; assay: Uptake of fluorescently labeled peptide-BSA conjugate (image analysis); format: cell-based, human; settings: peptide 10 μM, 8 hours
Experimental: as §2
A 96-well microplate (glass bottom plate, Nunc No. 164588) was treated with 100 μl of a 1% acidic collagen solution for 10 minutes in advance, and washed with 120 μl of PBS once, and 100 μl of 1×10^5/ml of HUVEC cells were seeded, and cultured under the condition of 37° C. and 5% CO2 for 2 days. Upon use, cells were washed with 150 μl of a medium (EBM-2 medium containing a 2% fetal bovine serum (Cambrex Bio Science, containing a growth factor)) once, and 50 μl of the same medium, and 50 μl of a solution obtained by diluting the peptide-BSA conjugate (SEQ ID Nos. 12, 13, 16, and 77) prepared in Example 3 (2) with a medium to the peptide concentration of 20 μM were sequentially added, followed by culturing under the condition of 37° C. and 5% CO2 for 8 hours (the peptide concentration at reaction with cells was 10 μM). Cells after the reaction were observed using a confocal laser microscope (Olympus FV1000).

[4] = test system: HUVEC cells; assay: Uptake of fluorescently labeled peptide-multiarm PEG conjugate into endothelial cell (image analysis scoring); format: cell-based, human; parameters: key: Score 0: No fluorescent luminescent spot in a cell is recognized.; Score 1: Faint fluorescent luminescent spots are recognized in a cell.; Score 2: Fluorescent luminescent spots clearer than in score 1 are recognized in a cell.; Score 3: Many luminescent spots further brighter than in score 2 are seen in a cell; settings: fluorescein-labeled multiarm PEG-peptide conjugate, peptide 16 μM, 8 hours
Experimental: as §1
A 96-well microplate (glass bottom plate, Nunc No. 164588) was treated with 100 μl of a 1% acidic collagen solution for 10 minutes in advance, and washed with 120 μl of PBS once, and 100 μl of 1×10^5/ml of HUVEC cells were seeded, and cultured under the condition of 37° C. and 5% CO2 for 2 days. Upon use, cells were washed with 150 μl of a medium (EBM-2 medium containing a 2% fetal bovine serum (Cambrex Bio Science, containing a growth factor)) once, and 50 μl of the same medium, and 50 μl of a solution obtained by diluting the multiarm PEG-peptide conjugate (a peptide of SEQ ID No. 12 and a partial peptide thereof (SEQ ID Nos. 17, 18, and 19), a peptide of SEQ ID No. 13 and a partial peptide thereof (SEQ ID Nos. 15, 20, and 21), and a random sequence peptide (SEQ ID No. 77)) prepared in Example 3 (1) with a medium to the peptide concentration of 32 μM were sequentially added, followed by culturing under the condition of 37° C. and 5% CO2 for 8 hours (the peptide concentration at reaction with cells was 16 μM). The cell after the reaction was observed using a confocal laser microscope (Olympus FV1000). The amount of fluorescent luminescent spots derived from the peptide recognized in a cell was scored as follows.
Score 0: No fluorescent luminescent spot in a cell is recognized. Score 1: Faint fluorescent luminescent spots are recognized in a cell. Score 2: Fluorescent luminescent spots clearer than in score 1 are recognized in a cell. Score 3: Many luminescent spots further brighter than in score 2 are seen in a cell.

[5] = test system: HeLa; assay: Uptake of fluorescently labeled peptide-BSA conjugate (image analysis); format: cell-based; settings: HeLa comparative cell; compared with uptake into a HUVEC
[6] = test system: normal human umbilical vein endothelial cell; assay: Uptake of peptide-modified liposome encapsulating doxorubicin into HUVEC (quantification analysis); format: cell-based; settings: doxorubicin-encapsulated peptide-modified liposome, 6 hours
Experimental: Hydrogenated soybean phosphatidyl choline (10 mg), cholesterol (3.4 mg),
distearoylphosphatidylethanolamine-polyethylene glycol 5000 (3.5 mg), and distearoylphosphatidylethanolamine-polyethylene glycol 5000-maleimide (3.1 mg) were dissolved in chloroform, and a solvent in a flask was removed using an evaporator to form a thin film. To this was added 1.7 mL of a 250 mM aqueous ammonium sulfate solution, followed by heating at 65° C. The resulting vesicle was adjusted in a particle size with an extruder using, subsequently, porous membranes of the pore sizes of 1.0 μm, 0.4 μm, and 0.2 μm. Into the prepared liposome having the particle diameter of about 200 nm was encapsulated doxorubicin by a remote loading method. After unencapsulated doxorubicin was removed with a column, peptides (SEQ ID Nos. 12, 13, 76 (partial sequence of SEQ ID No. 7), and 78) were added, respectively, at the ⅕ amount based on maleimide, and a liposome into which various peptides are introduced was prepared. Unreacted maleimide was inactivated by adding the 3-fold amount of 2-mercaptoethanol.
Regarding a 50 to 60% confluent normal human umbilical vein endothelial cell cultured in a 24-well plate, a medium was exchanged, and a doxorubicin-encapsulated peptide-modified liposome solution was added in the half amount of a medium. After 6 hours, cells were washed with a phosphate buffer, treated with trypsin, and cells were collected by a centrifugation procedure. To a cell pellet was added 50 μL of 10% Triton X-100 to dissolve cells and the doxorubicin-encapsulated peptide-modified liposome, 350 μL of isopropanol with 10% 0.75 M HCl added thereto was added, and this was allowed to stand overnight at −20° C. After a centrifugation procedure, the supernatant was analyzed with an ODS column, and doxorubicin taken in the cell was quantitated.

Substance: EYDLSTAGGAAA [Sequence-77, reference compound]
- Recovery of Peptide-PEG conjugate (%) [1]: 0.020%
- Recovery of Peptide-BSA conjugate (%) [2]: 0.029%
- Uptake of peptide-BSA conjugate into cell (confocal laser microscopic image) [3]: no peptide in, a cell was observed
- Intracellular Fluorescence (Score) [4]: 0

Substance: GTQLFLIH [Sequence-16]
- Recovery of Peptide-PEG conjugate (%) [1]: 0.047%
- Recovery of Peptide-BSA conjugate (%) [2]: 0.227%
- Uptake of peptide-BSA conjugate into cell (confocal laser microscopic image) [3]: many bright luminescent spots were observed in a cell
- Uptake of peptide-BSA conjugate into cell (confocal laser microscopic image) [5]: an extremely small amount of peptides were observed in a cell

Substance: PFLPLYVP [Sequence-15]
- Intracellular Fluorescence (Score) [4]: 2

Substance: PLALLTVH [Sequence-19]
- Intracellular Fluorescence (Score) [4]: 1

Substance: PSPLALLT [Sequence-18]
- Intracellular Fluorescence (Score) [4]: 1

Substance: SEQ ID No. 76: partial sequence of SEQ ID No. 7; sequence not printed in the text (VIPILSIYTA; Designed peptide acting as a vascular endothelial cell binding peptide)
- Amount of uptake of doxorubicin compared with random sequence (SEQ ID No. 78) liposome and liposome with no peptide [6]: remarkably increased

Substance: SLTVPFLP [Sequence-20]
- Intracellular Fluorescence (Score) [4]: 1

Substance: SLTVPFLPLYVP [Sequence-13, peptide presented by phage PhD clone3-30]
- Recovery of Peptide-PEG conjugate (%) [1]: 0.122%
- Recovery of Peptide-BSA conjugate (%) [2]: 0.116%
- Uptake of peptide-BSA conjugate into cell (confocal laser microscopic image) [3]: many bright luminescent spots were observed in a cell
- Uptake of peptide-BSA conjugate into cell (confocal laser microscopic image) [5]: an extremely small amount of peptides were observed in a cell
- Intracellular Fluorescence (Score) [4]: 2
- Amount of uptake of doxorubicin compared with introduction of SEQ ID Nos. 12 and 76 [6]: higher
- Amount of uptake of doxorubicin compared with random sequence (SEQ ID No. 78) liposome and liposome with no peptide [6]: remarkably increased
- Amount of uptake of doxorubicin relative to no peptide introduction [6]: about 3 fold

Substance: TLPSPLAL [Sequence-17]
- Intracellular Fluorescence (Score) [4]: 1

Substance: TLPSPLALLTVH [Sequence-12, peptide presented by phage PhD clone1-14]
- Recovery of Peptide-PEG conjugate (%) [1]: 0.211%
- Recovery of Peptide-BSA conjugate (%) [2]: 0.127%
- Uptake of peptide-BSA conjugate into cell (confocal laser microscopic image) [3]: many bright luminescent spots were observed in a cell
- Uptake of peptide-BSA conjugate into cell (confocal laser microscopic image) [5]: an extremely small amount of peptides were observed in a cell
- Intracellular Fluorescence (Score) [4]: 3
- Amount of uptake of doxorubicin compared with random sequence (SEQ ID No. 78) liposome and liposome with no peptide [6]: remarkably increased

Substance: TVPFLPLY [Sequence-21]
- Intracellular Fluorescence (Score) [4]: 1
